From a compilation of properties of binary mixtures (doi:10.1021/je060126x)

Assay: xn = mol fraction of the nth substance listed
Conditions: 298.15 K, 101 kPa

CCOS(=O)(=O)[O-].CC[n+]1ccn(C)c1 + CCO
Conditions	speed of sound [m/s]	viscosity [mPa·s]
x2 = 0.1271	1657	65.5
x2 = 0.1281	1655	66.1
x2 = 0.2039	1636	49.8
x2 = 0.3088	1603	34.69
x2 = 0.3256	1598	32.21
x2 = 0.3598	1586	28.75
x2 = 0.4147	1566	22.88
x2 = 0.4336	1558	21.39
x2 = 0.4604	1545	18.98
x2 = 0.5103	1525	15.4
x2 = 0.5223	1516	14.78
x2 = 0.5724	1490	11.74
x2 = 0.5926	1480	10.83
x2 = 0.5951	1467	10.65
x2 = 0.712	1407	6.13
x2 = 0.7174	1406	5.98
x2 = 0.7676	1369	4.68
x2 = 0.806	1339	3.86
x2 = 0.8666	1286	2.709
x2 = 0.9026	1253	2.189
x2 = 0.9062	1248	2.138
x2 = 0.9504	1202	1.628
x2 = 0.9522	1200	1.589
